Laboratory results: ChEMBL document CHEMBL1201862, “PubChem BioAssay data set” (2004)
Active and inactive are the calls of the source.

How the values were obtained:
[1] = HepG2 cell cytotoxicity, dose response, cytotoxicity control for Shn3 inhibitor project, CellTiter-Glo, cherry-picked (AID 624134); type: functional, cell-based
[2] = Shn3 3'UTR reporter inhibitors, dose response, cell-based, Clone20 osteoblasts, firefly luciferase, cherry-picked (AID 624132); type: functional;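 also: firefly luciferase luminescence from reporter carrying the Shn3 3'UTR in osteoblasts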
[3] = control 3'UTR Renilla luciferase suppression, dose response, counter-screen for Shn3 inhibitor project, cell-based, Clone20-Shn3RL, cherry-picked (AID 624133); type: functional
[4] = inhibitors of Vif binding to APOBEC3G peptide, primary screen, biochemical, TR-FRET, GST-Vif 1-94, biotin-A3G peptide, dose response retest (AID 1117319); type: functional;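 also: TR-FRET signal of purified GST-Vif binding a biotinylated A3G peptide; inhibitors lower the FRET signal by blocking Vif and A3G binding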
[5] = biological target: T1, DNA repair and recombination protein RAD54-like (Homo sapiens, UniProt Q92698); assay: inhibitors of human RAD54 branch migration, confirmation, biochemical, fluorescence, cherry-picked samples, dose series (AID 651657); type: functional
T1 sequence (Q92698 whole entry): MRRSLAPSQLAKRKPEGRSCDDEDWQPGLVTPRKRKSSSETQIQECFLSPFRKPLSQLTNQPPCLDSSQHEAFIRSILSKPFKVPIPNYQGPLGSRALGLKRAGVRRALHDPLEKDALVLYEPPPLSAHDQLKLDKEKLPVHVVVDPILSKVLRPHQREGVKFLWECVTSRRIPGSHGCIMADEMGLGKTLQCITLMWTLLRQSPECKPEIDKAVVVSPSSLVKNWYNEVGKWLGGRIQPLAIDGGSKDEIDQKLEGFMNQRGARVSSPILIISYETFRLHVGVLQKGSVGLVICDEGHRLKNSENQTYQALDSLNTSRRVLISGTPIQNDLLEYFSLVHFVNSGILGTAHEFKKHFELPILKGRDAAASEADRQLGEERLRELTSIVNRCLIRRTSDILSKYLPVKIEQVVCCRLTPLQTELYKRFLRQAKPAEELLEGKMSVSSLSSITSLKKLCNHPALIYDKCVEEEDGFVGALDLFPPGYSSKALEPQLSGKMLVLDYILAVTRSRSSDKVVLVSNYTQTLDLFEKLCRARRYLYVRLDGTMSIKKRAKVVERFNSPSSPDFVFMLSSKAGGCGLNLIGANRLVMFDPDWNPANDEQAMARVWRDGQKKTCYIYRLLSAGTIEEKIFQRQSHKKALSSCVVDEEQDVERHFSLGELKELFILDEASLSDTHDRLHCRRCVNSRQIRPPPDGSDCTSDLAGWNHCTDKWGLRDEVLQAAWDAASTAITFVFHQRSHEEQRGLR

[6] = cytotoxicity in HEK-293T cells, dose response, cytotoxicity control for TCR NF-kB inhibitor project, luminescence, T-cell screen hits (AID 489026); type: functional, cell-based;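 also: cells exposed to compound about 14 hours before the viability readout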
[7] = intracellular Trypanosoma cruzi inhibitors in host cells – cell-based, plate reader, cherry-pick samples, set 3, dose response (AID 651818); type: functional;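 also: compounds incubated with infected cells for about four days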
[8] = biological target: T2, Short transient receptor potential channel 4 (Mus musculus, UniProt Q9QUQ5); assay: mouse TRPC4 channel inhibitors, dose response, cell-based, HEK293 TRPC4/mu-opioid, Fluo-4 calcium (AID 434942); type: functional;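 also: potency of inhibitors blocking the TRPC4 calcium response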
T2 sequence (Q9QUQ5 whole entry): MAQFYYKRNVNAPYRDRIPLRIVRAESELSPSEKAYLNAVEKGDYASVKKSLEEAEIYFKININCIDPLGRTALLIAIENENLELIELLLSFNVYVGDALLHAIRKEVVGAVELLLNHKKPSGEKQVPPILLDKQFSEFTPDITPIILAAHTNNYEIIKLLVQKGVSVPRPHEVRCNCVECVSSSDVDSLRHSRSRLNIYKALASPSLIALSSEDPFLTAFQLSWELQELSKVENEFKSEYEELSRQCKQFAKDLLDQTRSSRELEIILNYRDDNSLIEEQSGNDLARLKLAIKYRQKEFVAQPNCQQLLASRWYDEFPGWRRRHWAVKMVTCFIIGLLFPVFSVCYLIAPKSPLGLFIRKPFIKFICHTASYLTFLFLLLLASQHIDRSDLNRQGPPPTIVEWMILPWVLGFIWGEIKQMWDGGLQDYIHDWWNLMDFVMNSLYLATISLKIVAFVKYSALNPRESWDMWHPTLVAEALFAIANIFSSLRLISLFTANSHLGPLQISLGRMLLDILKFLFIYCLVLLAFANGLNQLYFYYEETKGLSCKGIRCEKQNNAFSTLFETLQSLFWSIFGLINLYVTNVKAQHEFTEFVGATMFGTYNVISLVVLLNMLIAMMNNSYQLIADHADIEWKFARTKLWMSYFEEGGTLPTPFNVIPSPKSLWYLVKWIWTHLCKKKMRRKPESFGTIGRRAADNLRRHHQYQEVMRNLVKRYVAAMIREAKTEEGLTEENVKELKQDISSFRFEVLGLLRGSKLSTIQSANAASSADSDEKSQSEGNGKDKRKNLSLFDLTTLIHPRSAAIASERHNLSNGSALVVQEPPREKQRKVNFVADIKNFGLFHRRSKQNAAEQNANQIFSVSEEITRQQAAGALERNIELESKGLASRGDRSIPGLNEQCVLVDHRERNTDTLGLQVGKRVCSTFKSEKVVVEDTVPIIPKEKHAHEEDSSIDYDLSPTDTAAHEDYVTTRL

[9] = biological target: T3, DNA repair protein RAD52 homolog (Homo sapiens, UniProt P43351); type: functional, biochemical
T3 sequence (P43351 whole entry): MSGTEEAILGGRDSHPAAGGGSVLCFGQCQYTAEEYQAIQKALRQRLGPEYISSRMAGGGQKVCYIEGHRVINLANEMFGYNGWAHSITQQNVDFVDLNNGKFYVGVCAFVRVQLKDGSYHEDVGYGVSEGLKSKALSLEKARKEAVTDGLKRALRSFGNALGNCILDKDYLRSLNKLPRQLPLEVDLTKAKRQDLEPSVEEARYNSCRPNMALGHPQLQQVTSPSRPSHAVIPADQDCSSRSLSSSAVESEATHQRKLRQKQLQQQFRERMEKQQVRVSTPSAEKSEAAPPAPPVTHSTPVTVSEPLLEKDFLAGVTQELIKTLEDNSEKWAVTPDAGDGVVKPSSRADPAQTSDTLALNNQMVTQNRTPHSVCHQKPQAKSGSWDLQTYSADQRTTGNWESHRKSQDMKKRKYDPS

[10] = HEK293T cytotoxicity, dose response, cytotoxicity control for miR-122 modulator project, cell-based, inhibitor set, cherry-pick, set 2 (AID 720697); type: functional
[11] = biological target: T4, Microphthalmia-associated transcription factor (Homo sapiens, UniProt O75030); assay: TRPM1 promoter luciferase signal decrease, dose response, MITF inhibitor project, cell-based, SK-MEL-5, cherry-picked, set 3 (AID 493073); type: functional
T4 sequence (O75030 whole entry): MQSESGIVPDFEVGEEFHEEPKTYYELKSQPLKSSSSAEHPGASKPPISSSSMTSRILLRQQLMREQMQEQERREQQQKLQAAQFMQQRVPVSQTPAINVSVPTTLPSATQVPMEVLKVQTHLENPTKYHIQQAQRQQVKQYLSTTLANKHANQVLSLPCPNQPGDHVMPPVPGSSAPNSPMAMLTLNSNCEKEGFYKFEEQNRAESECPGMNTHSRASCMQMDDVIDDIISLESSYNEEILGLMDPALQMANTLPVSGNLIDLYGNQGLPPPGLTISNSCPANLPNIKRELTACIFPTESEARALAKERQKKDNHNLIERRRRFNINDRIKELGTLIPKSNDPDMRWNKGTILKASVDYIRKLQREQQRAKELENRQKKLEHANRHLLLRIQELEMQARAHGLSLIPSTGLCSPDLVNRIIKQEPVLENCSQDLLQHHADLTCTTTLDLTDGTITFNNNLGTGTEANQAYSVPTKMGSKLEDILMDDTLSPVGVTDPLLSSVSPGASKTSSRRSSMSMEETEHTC

O=C1CCCN2N=C(SCC(=O)Nc3cccc(C(F)(F)F)c3)SC2=N1
AC50 [1]: 5.46 µM (active)
AC50 [2]: 4.37 µM (active)
AC50 [3]: 2.95 µM (active)

CC(=O)Nc1ccc(S(=O)(=O)Nc2nnc(C(C)C)s2)cc1
IC50 [4]: > 100 µM (active)

Cc1ccc2oc(=O)c3cc(C(=O)NCCCN4C(C)CCCC4C)sc3c2c1 (stereo not given)
AC50 [5]: 100 µM (inactive)

CCN1CCN(c2nc(N)c([N+](=O)[O-])c(Nc3cccc(C)c3)n2)CC1
AC50 [5]: 12.4 µM (active)

NCCOc1ccccc1Cc1ccccc1
IC50 [4]: > 100 µM (active)

Cc1ccc(N(C)S(=O)(=O)c2ccc(-c3cnc(C4CC4)o3)cc2)cc1
IC50 [6]: > 80 µM (inactive)

C[C@H]1CN([C@@H](C)CO)C(=O)c2cc(NC(=O)Nc3ccccc3)ccc2O[C@H]1CN(C)Cc1ccc(C(=O)Nc2ccccc2N)cc1
AC50 [7]: 4.89 µM (active)

C[C@@H]1CCCCO[C@H](CN(C)Cc2ccc(C(F)(F)F)cc2)[C@@H](C)CN([C@H](C)CO)C(=O)c2cc(NS(=O)(=O)c3ccc(Cl)cc3)ccc2O1
AC50 [7]: 3.33 µM (active)

COc1ccc(CN(C(=O)c2snc(C(N)=O)c2N)C(CC(C)C)C(=O)NC2CCCCC2)cc1 (stereo not given)
EC50 [8]: 1.33 µM (active)

COc1ccc(OC)c(CN2CCCC(C(=O)c3sccc3C)C2)c1 (stereo not given)
EC50 [8]: 1.88 µM (active)

COc1cccc(-c2cc3nc(NCCCN(C)C)n(C)c(=O)c3s2)c1
AC50 [5]: 30.6 µM (active)
AC50 [9]: 7.04 µM (active)

O=C(CCN1C(=O)c2ccccc2C1=O)NCc1ccco1
IC50 [4]: > 100 µM (active)

C[C@H](CO)N1C[C@H](C)[C@H](CN(C)C(=O)Nc2cccc3ccccc23)Oc2c(NC(=O)Nc3ccc4c(c3)OCO4)cccc2C1=O
AC50 [7]: 11.9 µM (active)

Cc1cc(C(=O)Nc2ccc3c(c2)C(=O)N(C)[C@H]2CC[C@H](CC(=O)N[C@@H](C)c4ccccc4)O[C@H]2CO3)no1
AC50 [10]: 0.478 µM (active)

Cc1ccc(C(O)(c2ccc(C)c(C)c2)C2CN3CCC2CC3)cc1C (stereo not given)
AC50 [11]: 10.1 µM (active)

O=C(c1cnn2cccnc12)N1CCN(Cc2ccc3c(c2)OCO3)CC1
IC50 [4]: > 100 µM (active)

COc1cccc(-n2c(Cc3cc(O)nc(O)n3)nnc2SCC(=O)NC2CCCC2)c1
IC50 [4]: > 100 µM (active)
